IC50 data for 25 molecules are collected here from US12275729B2 (Merck Sharp & Dohme LLC, priority 2017, dated 2025).

Each structure is given as a SMILES string.

IDO1, sequence (P14902 whole entry): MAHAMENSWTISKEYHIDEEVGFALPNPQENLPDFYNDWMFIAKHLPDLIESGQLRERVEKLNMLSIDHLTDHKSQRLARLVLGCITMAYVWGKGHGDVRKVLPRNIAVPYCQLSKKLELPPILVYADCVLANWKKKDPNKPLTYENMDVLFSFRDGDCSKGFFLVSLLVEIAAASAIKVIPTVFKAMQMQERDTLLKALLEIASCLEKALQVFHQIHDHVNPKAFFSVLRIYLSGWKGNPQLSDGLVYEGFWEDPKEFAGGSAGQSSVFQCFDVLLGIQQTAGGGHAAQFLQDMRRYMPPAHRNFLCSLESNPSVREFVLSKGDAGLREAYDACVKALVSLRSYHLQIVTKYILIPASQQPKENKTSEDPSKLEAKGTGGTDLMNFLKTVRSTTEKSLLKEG

The first experiment has as its target IDO1 (Homo sapiens, UniProt P14902). Description: IDO1 Cellular Assay in HeLa Cells Stimulated with IFNγ. It counts as cell-based. The settings on record: about 48 hours, read-out: Hela IC50.
`CC(NC(=O)c1ccc(Cl)cc1)c1ccc2c(n1)CCCN2C(=O)c1cc(C2CC2)ccn1` (stereo not shown) [Example 288, 4-chloro-N-(1-(5-(4-cyclopropylpicolinoyl)-5,6,7,8-tetrahydro-1,5-naphthyridin-2-yl)ethyl)benzamide]: the IC50 (usually the concentration that inhibits the measured activity by half) is 0.0032 µM.

Take `CC(C)(O)c1cccc(N2CCCc3nc(C4(NC(=O)c5ccc(F)cc5)CC4)ccc32)n1` [Example 297, 4-fluoro-N-(1-(5-(6-(2-hydroxypropan-2-yl)pyridin-2-yl)-5,6,7,8-tetrahydro-1,5-naphthyridin-2-yl)cyclopropyl)benzamide]: the IC50 was found to be 0.0464 µM.

Take `COc1ccnc(N2CCCc3nc(C4(NC(=O)c5ccc(F)cc5)CC4)ccc32)n1` [Example 298, 4-fluoro-N-(1-(5-(4-methoxypyrimidin-2-yl)-5,6,7,8-tetrahydro-1,5-naphthyridin-2-yl)cyclopropyl)benzamide]: the IC50 was determined as 0.0145 µM.

On to `Cc1nccc(N2CCCc3nc(C4(NC(=O)c5ccc(Cl)cc5)CC4)ccc32)n1` [Example 299, 4-chloro-N-(1-(5-(2-methylpyrimidin-4-yl)-5,6,7,8-tetrahydro-1,5-naphthyridin-2-yl)cyclopropyl)benzamide], for which the IC50 came to 0.00074 µM.

Consider `Cc1nccc(N2CCCc3nc(C4(NC(=O)c5ccc(F)c(F)c5)CC4)ccc32)n1` [Example 302, 3,4-difluoro-N-(1-(5-(2-methylpyrimidin-4-yl)-5,6,7,8-tetrahydro-1,5-naphthyridin-2-yl)cyclopropyl)benzamide], for which the IC50 amounted to 0.00292 µM.

The experiment is the same for the next values; noted with them: read-out: Hela IC50.
Regarding `CC(NC(=O)c1ccc(F)cc1)c1ccc2c(n1)CCCN2C(=O)OCC1CCO1` (stereo not shown) [Example 313, oxetan-2-ylmethyl 6-(1-(4-fluorobenzamido)ethyl)-3,4-dihydro-1,5-naphthyridine-1(2H)-carboxylate], the half-inhibitory concentration (IC50) was 0.0453 µM.

For `CC(NC(=O)c1ccc(F)cc1)c1ccc2c(n1)CCCN2C(=O)OC1CCCC1` (stereo not shown) [Example 314, cyclopentyl 6-(1-(4-fluorobenzamido)ethyl)-3,4-dihydro-1,5-naphthyridine-1(2H)-carboxylate], the IC50 was determined as 0.00065 µM.

Take `CC(NC(=O)c1ccc(F)cc1)c1ccc2c(n1)CCCN2C(=O)OCc1ccn(C)n1` (stereo not shown) [Example 317, (1-methyl-1H-pyrazol-3-yl)methyl 6-(1-(4-fluorobenzamido)ethyl)-3,4-dihydro-1,5-naphthyridine-1(2H)-carboxylate]: the IC50 stood at 0.0211 µM.

For `CC(NC(=O)c1ccc(F)cc1)c1ccc2c(n1)CCCN2C(=O)OC(C)c1cccnc1` (stereo not shown) [Example 318, 1-(pyridin-3-yl)ethyl 6-(1-(4-fluorobenzamido)ethyl)-3,4-dihydro-1,5-naphthyridine-1(2H)-carboxylate], the IC50 was determined as 0.0198 µM.

As to `CC(NC(=O)c1ccc(F)cc1)c1ccc2c(n1)CCCN2C(=O)OCCC1CC1(F)F` (stereo not shown) [Example 319, 2-(2,2-difluorocyclopropyl)ethyl 6-(1-(4-fluorobenzamido)ethyl)-3,4-dihydro-1,5-naphthyridine-1(2H)-carboxylate], the IC50 was 0.00987 µM.

With `CCCOCCOC(=O)N1CCCc2nc(C(C)NC(=O)c3ccc(F)cc3)ccc21` (stereo not shown) [Example 323, 2-propoxyethyl 6-(1-(4-fluorobenzamido)ethyl)-3,4-dihydro-1,5-naphthyridine-1(2H)-carboxylate], the IC50 came out at 0.0044 µM.

As for `CC(NC(=O)c1ccc(F)cc1)c1ccc2c(n1)CCCN2C(=O)OCCCn1ccnc1` (stereo not shown) [Example 325, 3-(1H-imidazol-1-yl)propyl 6-(1-(4-fluorobenzamido)ethyl)-3,4-dihydro-1,5-naphthyridine-1(2H)-carboxylate], the IC50 stood at 1.3 µM.

`CC(NC(=O)c1ccc(F)cc1)c1ccc2c(n1)CCCN2C(=O)OCCc1ccc(Cl)c(Cl)c1` (stereo not shown) [Example 326, 3,4-dichlorophenethyl 6-(1-(4-fluorobenzamido)ethyl)-3,4-dihydro-1,5-naphthyridine-1(2H)-carboxylate]: the IC50 turned out to be 0.0243 µM.

For the molecule `CC(COC(=O)N1CCCc2nc(C(C)NC(=O)c3ccc(F)cc3)ccc21)Oc1ccccc1` (stereo not shown) [Example 327, 2-phenoxypropyl 6-(1-(4-fluorobenzamido)ethyl)-3,4-dihydro-1,5-naphthyridine-1(2H)-carboxylate], the concentration for half-maximal inhibition (IC50) turned out to be 0.0144 µM.

`CC(NC(=O)c1ccc(F)cc1)c1ccc2c(n1)CCCN2C(=O)OCCn1ccnc1` (stereo not shown) [Example 328, 2-(1H-imidazol-1-yl)ethyl 6-(1-(4-fluorobenzamido)ethyl)-3,4-dihydro-1,5-naphthyridine-1(2H)-carboxylate]: the IC50 amounted to 0.479 µM.

As for `CC(NC(=O)c1ccc(F)cc1)c1ccc2c(n1)CCCN2C(=O)OCCN(C)C` (stereo not shown) [Example 329, 2-(dimethylamino)ethyl 6-(1-(4-fluorobenzamido)ethyl)-3,4-dihydro-1,5-naphthyridine-1(2H)-carboxylate], the IC50 worked out at 2.2 µM.

With `CC(NC(=O)c1cccc(C#N)c1)c1ccc2c(n1)CCCN2C(=O)OC1CC1` (stereo not shown) [Example 335, cyclopropyl 6-(1-(3-cyanobenzamido)ethyl)-3,4-dihydro-1,5-naphthyridine-1(2H)-carboxylate], the IC50 came out at 5.7 µM.

Consider `COc1cccc(C(=O)NC(C)c2ccc3c(n2)CCCN3C(=O)OC2CC2)c1` (stereo not shown) [Example 336, cyclopropyl 6-(1-(3-methoxybenzamido)ethyl)-3,4-dihydro-1,5-naphthyridine-1(2H)-carboxylate], for which the concentration for half-maximal inhibition (IC50) is 0.973 µM.

Turning to `CC(NC(=O)c1ccc(C#N)cc1)c1ccc2c(n1)CCCN2C(=O)OC1CC1` (stereo not shown) [Example 337, cyclopropyl 6-(1-(4-cyanobenzamido)ethyl)-3,4-dihydro-1,5-naphthyridine-1(2H)-carboxylate], the IC50 worked out at 0.0882 µM.

For `COc1ccc(C(=O)NC(C)c2ccc3c(n2)CCCN3C(=O)OC2CC2)cc1` (stereo not shown) [Example 338, cyclopropyl 6-(1-(4-methoxybenzamido)ethyl)-3,4-dihydro-1,5-naphthyridine-1(2H)-carboxylate], the IC50 came out at 0.161 µM.

In the case of `Cc1cc(N2CCCc3nc(C(C)NC(=O)c4ccc(Cl)cc4)ccc32)nc(C(F)(F)F)n1` (stereo not shown) [Example 349, 4-chloro-N-(1-(5-(6-methyl-2-(trifluoromethyl)pyrimidin-4-yl)-5,6,7,8-tetrahydro-1,5-naphthyridin-2-yl)ethyl)benzamide], the IC50 turned out to be 0.00971 µM.

In the case of `COc1cccc(N2CCCc3nc(C(C)NC(=O)c4ccc(Cl)cc4)ccc32)n1` (stereo not shown) [Example 352, 4-chloro-N-(1-(5-(6-methoxypyridin-2-yl)-5,6,7,8-tetrahydro-1,5-naphthyridin-2-yl)ethyl)benzamide], the IC50 came to 0.00401 µM.

With `CC(C)Oc1cccc(N2CCCc3nc(C(C)NC(=O)c4ccc(Cl)cc4)ccc32)n1` (stereo not shown) [Example 353, 4-chloro-N-(1-(5-(6-isopropoxypyridin-2-yl)-5,6,7,8-tetrahydro-1,5-naphthyridin-2-yl)ethyl)benzamide], the IC50 turned out to be 0.0772 µM.

Turning to `CC(NC(=O)c1ccc(F)cc1)c1ccc2c(n1)CCCN2c1cccc(C(F)(F)F)n1` (stereo not shown) [Example 354, 4-fluoro-N-(1-(5-(6-(trifluoromethyl)pyridin-2-yl)-5,6,7,8-tetrahydro-1,5-naphthyridin-2-yl)ethyl)benzamide], the IC50 came to 0.0105 µM.

`Cc1nc(N2CCCc3nc(C(C)NC(=O)c4ccc(Cl)cc4)ccc32)c2cc(Cl)ccc2n1` (stereo not shown) [Example 359, 5-(6-chloro-2-methylquinazolin-4-yl)-2-(1-(4-chlorobenzamido)ethyl)-5,6,7,8-tetrahydro-1,5-naphthyridin-1-ium 2,2,2-trifluoroacetate]: the IC50 turned out to be 0.025 µM.
